# Experimental data from patent US20070082956A1, “The use of 1-amino-alkylcyclohexane compounds in the treatment of pain hypersensitivity” (MERZ PHARMA GmbH & Co. KGaA, priority 2003, published 2007).
# System: intradermal capsaicin injection model (secondary hyperalgesia)
# Test: Human surrogate model of neuropathic pain (intradermal capsaicin injection), placebo-controlled double-blind crossover study
# Assay type: in vivo
# Method: This surrogate model of neuropathic pain is thus a valid method for early clinical testing of substances for the treatment of neuropathic pain. The efficacy of the neramexane, a moderate affinity, uncompetitive NMDA receptor antagonist, was tested in a placebo-controlled double-blind crossover study in the intradermal capsaicin injection model. Capsaicin (40 μg) was injected intradermally in the skin of the ventral forearm 3 hours after administration of a single oral dose of neramexane hydrochloride (40 mg) or placebo. Changes of pain sensitivity adjacent to the capsaicin injection and in a remote control area were tested in parallel by quantitative sensory testing prior to oral neramexane or placebo, 2½ hours after neramexane or placebo (i.e., prior to capsaicin injection) and 1½ hours after capsaicin injection. The capsaicin injection elicited a strong, over 5-10 min rapidly declining burning pain resulting in enhanced pain sensitivity adjacent to the injection including hyperalgesia to pin prick and pain to light touch (“allodynia”).
compound,measurement,setting,value
"CC1(C)CC(C)(C)CC(C)(N)C1 [neramexane, 1-amino-1,3,3,5,5-pentamethylcyclohexane]",size of the capsaicin-induced axon reflex erythema,single oral dose 40 mg,remained unaltered
same,summation of pain to repetitive pin prick stimulation (trains of 10 stimuli at 1 Hz),single oral dose 40 mg,never changed
same,reduction of capsaicin-induced burning pain compared to placebo,"single oral dose 40 mg, 2nd-5th min after capsaicin injection, n.s.",33%
same,reduction of pain to stroking light touch stimuli (allodynia),"single oral dose 40 mg, across all test times, p=0.07",22%
same,reduction of pain of noxious pin pricks compared to placebo (analgesia),"single oral dose 40 mg, control area at any time and test area before capsaicin injection, p<0.001",27-31%
same,reduction of pain to stroking light touch stimuli (allodynia),"single oral dose 40 mg, first 30 min after capsaicin injection, p<0.05",25%
same,"antihyperalgesia alone, calculated from the ratio of test and control area","single oral dose 40 mg, not significant",9%
same,reduction of pin prick pain compared to placebo (combined analgesia and antihyperalgesia),"single oral dose 40 mg, test area after capsaicin injection, p<0.001",39%
same,reduction of capsaicin-induced burning pain compared to placebo,"single oral dose neramexane hydrochloride 40 mg, 3 hours before capsaicin 40 μg intradermal, first minute after injection, p<0.01",21%
